The values that follow come from US20100197679A1, “COMPOUNDS” (Glaxo Group Limited, priority 2007, published 2010).

A short description of assay [1]: Whole-cell antimicrobial activity assay, broth microdilution (CLSI M7-A7), MIC. The assay is classed as cell-based. Conditions: two-fold dilutions 0.016 to 16 mcg/mL, at least one of the listed Gram-positive/Gram-negative organisms, at least one exemplified salt or free base form, read-out: MIC against at least one of the organisms listed. As to the method:
Whole-cell antimicrobial activity was determined by broth microdilution using the Clinical Laboratory Standards Institute (CLSI) recommended procedure, Document M7-A7, “Methods for Dilution Susceptibility Tests for Bacteria that Grow Aerobically”. The compounds were tested in serial two-fold dilutions ranging from 0.016 to 16 mcg/mL.
The minimum inhibitory concentration (MIC) was determined as the lowest concentration of compound that inhibited visible growth. A mirror reader was used to assist in determining the MIC endpoint.
Compounds were evaluated against Gram-positive organisms, including Staphylococcus aureus, Streptococcus pneumoniae, Streptococcus pyogenes, Enterococcus faecalis and Enterococcus faecium.
In addition, compounds were evaluated against Gram-negative organisms including Haemophilus influenzae, Moraxella catarrhalis, Escherichia coli, Pseudomonas aeruginosa, Proteus mirabilis, Enterobacter cloacae, Enterobacter aerogenes, Klebsiella pneumoniae, Acinetobacter baumanii and Stenotrophomonas maltophilia.

The test system of assay [2] is Mycobacterium tuberculosis H37Rv. Kind of assay: Mycobacterium tuberculosis H37Rv Inhibition Assay (MIC, resazurin fluorescence). The following applies: ATCC 25618 / H37Rv. The assay is classed as cell-based. Background: Alamar Blue is a resazurin reagent that responds to reducing activity.
The mark [3] stands for this setting: H37Rv strain (ATCC25618), Middlebrook 7H9+ADC, six days at 37° C., resazurin read after 48 hours, read-out: MIC value.

Structures can show the parent of a compound that is named as a salt. Where two headings read alike, the source gives them in different places.

`COc1ccc2ncc(=O)n(-c3cnc4c(c3)OCC(NCc3cc5c(cn3)OCCO5)C4)c2n1` (stereo not drawn) [Example 17, 4-{3-[(2,3-Dihydro[1,4]dioxino[2,3-c]pyridin-7-ylmethyl)amino]-3,4-dihydro-2H-pyrano[3,2-b]pyridin-7-yl}-6-(methyloxy)pyrido[2,3-b]pyrazin-3(4H)-one fumarate]: in assay [1], the minimum inhibitory concentration (MIC) (as a rule, the least concentration at which growth counts as inhibited) worked out at 16 mg/L.
For the molecule `COc1ccc2ncc(=O)n(-c3cnc4c(c3)C[C@@H](O)[C@H](NCc3cc5c(cn3)OCCO5)C4)c2n1` (racemic) [Example 18, 4-{(6R/S,7R/S)-7-[(2,3-Dihydro[1,4]dioxino[2,3-c]pyridin-7-ylmethyl)amino]-6-hydroxy-5,6,7,8-tetrahydro-3-quinolinyl}-6-(methyloxy)pyrido[2,3-b]pyrazin-3(4H)-one dihydrochloride], the MIC in assay [2] (read-out: MIC value, H37Rv strain (ATCC25618), Middlebrook 7H9+ADC, six days at 37° C., resazurin read after 48 hours) was ≤ 1.1 mg/L.
As for `COc1ccc2ncc(=O)n(-c3cnc4c(c3)CCC(NCc3cc5c(nn3)OCCO5)C4)c2n1` (stereo not drawn) [Example 7, 4-{7-[(6,7-Dihydro[1,4]dioxino[2,3-c]pyridazin-3-ylmethyl)amino]-5,6,7,8-tetrahydro-3-quinolinyl}-6-(methyloxy)pyrido[2,3-b]pyrazin-3(4H)-one hydrochloride], the minimum inhibitory concentration (MIC) in assay [2] (setting [3]) was ≤ 1.1 mg/L.
On the same count and under the same terms, the value for `COc1ccc2ncc(=O)n(-c3cnc4c(c3)C[C@@H](O)[C@@H](NCc3cc5c(cn3)OCCO5)C4)c2n1` (relative stereo) [Example 14, Cis-4-{7-[(2,3-Dihydro[1,4]dioxino[2,3-c]pyridin-7-ylmethyl)amino]-6-hydroxy-5,6,7,8-tetrahydro-3-quinolinyl}-6-(methyloxy)pyrido[2,3-b]pyrazin-3(4H)-one] was ≤ 1.1 mg/L; that for `COc1ccc2ncc(=O)n(-c3cnc4c(c3)C[C@@H](O)[C@@H](NCc3cc5c(nn3)OCCO5)C4)c2n1` (relative stereo) [Example 13, Cis-4-{7-[(6,7-Dihydro[1,4]dioxino[2,3-c]pyridazin-3-ylmethyl)amino]-6-hydroxy-5,6,7,8-tetrahydro-3-quinolinyl}-6-(methyloxy)pyrido[2,3-b]pyrazin-3(4H)-one dihydrochloride] was ≤ 1.1 mg/L; that for `COc1ccc2ncc(=O)n(-c3cnc4c(c3)CCC(NCc3cc5c(cn3)OCCO5)C4)c2n1` (stereo not drawn) [Example 8, 4-{7-[(2,3-Dihydro[1,4]dioxino[2,3-c]pyridin-7-ylmethyl)amino]-5,6,7,8-tetrahydro-3-quinolinyl}-6-(methyloxy)pyrido[2,3-b]pyrazin-3(4H)-one hydrochloride] was ≤ 1.1 mg/L.
